Source: US20220184071A1, “GEPOTIDACIN FOR USE IN THE TREATMENT OF BACTERIAL URINARY TRACT INFECTIONS” (GlaxoSmithKline Intellectual Property Development Limited, priority 2019, published 2022)
Converted amounts (≈) assume the structure as drawn. Like-named read-outs stand apart in the source and are kept apart here.

Assays:
Type in all cases: cell-based
Bacteroides vulgatus = experiment: MIC by broth microdilution, drug-resistant isolates
Procedure: (§1) Additional analysis was performed from the results of the study described in Method 1 above, to determine the in vitro activity of gepotidacin against gram-negative and gram-positive anaerobic organisms with resistance to ceftriaxone, clindamycin, imipenem, metronidazole, moxifloxacin and piperacillin/tazobactam.

Bacteroides uniformis = experiment: as above
Procedure: as §1

Bacteroides fragilis = experiment: as above
Procedure: as §1

Bacteroides stercoris = experiment: as above; settings: ceftriaxone R, 2 isolates
Procedure: as §1

Bacteroides ovatus = experiment: as above
Procedure: as §1

Bacteroides spp = experiment: as above
Procedure: as §1

[1] = test system: Bacteroides thetaiotaomicron; experiment: as above
Procedure: as §1

Bacteroides caccae = experiment: as above; settings: 1 isolate
Procedure: as §1

Bifidobacterium spp. = experiment: MIC by CLSI agar dilution, Example 6 Method 1
Procedure: (§2) Antimicrobial activity was determined by agar dilution using the Clinical and Laboratory Standards Institute (CLSI) recommended procedure.
(§3) The compounds were tested in serial two-fold dilutions and the minimum inhibitory concentration (MIC) was determined as the lowest concentration of the compound that inhibited visible growth. Gepotidacin was tested against 333 gram-negative anaerobic and 203 gram-positive anaerobic isolates collected from clinical samples in North America and Europe from 2000 to 2017; the majority collected from 2013 to 2016.
(§4) Ceftriaxone, clindamycin, imipenem, metronidazole, moxifloxacin and piperacillin/tazobactam were included as comparators.
as §1

Veillonella spp. = experiment: MIC by CLSI agar dilution, Example 6 Method 1
Procedure: as §2, §3, §4, §1

Clostridium difficile = experiment: MIC by CLSI agar dilution, Example 6 Method 1
Procedure: as §2, §3, §4, §1

Eubacterium spp. = experiment: MIC by CLSI agar dilution, Example 6 Method 1
Procedure: as §2, §3, §4, §1

[2] = test system: Peptostreptococcus anaerobius; experiment: MIC by CLSI agar dilution, Example 6 Method 1; settings: for Gepotidacin MIC range: 3 isolates
Procedure: as §2, §3, §4, §1

Prevotella spp. = experiment: MIC by CLSI agar dilution, Example 6 Method 1
Procedure: as §2, §3, §4, §1

[3] = test system: Sutterella wadsworthensis; experiment: MIC by CLSI agar dilution, Example 6 Method 1
Procedure: as §2, §3, §4, §1

Porphyromonas spp. = experiment: MIC by CLSI agar dilution, Example 6 Method 1; settings: 26 isolates, read-out: Gepotidacin MIC90
Procedure: as §2, §3, §4, §1

Bacteroides spp. = experiment: MIC by CLSI agar dilution, Example 6 Method 1; settings: for Gepotidacin MIC range: agar dilution
Procedure: as §2, §3, §4, §1

Fusobacterium spp. = experiment: MIC by CLSI agar dilution, Example 6 Method 1
Procedure: as §2, §3, §4, §1

[4] = test system: gram-negative and gram-positive anaerobes tested; experiment: MIC by CLSI agar dilution, Example 6 Method 1
Procedure: as §2, §3, §4, §1

Eggerthella lenta = experiment: MIC by CLSI agar dilution, Example 6 Method 1
Procedure: as §2, §3, §4, §1

Lactobacillus spp. = experiment: MIC by CLSI agar dilution, Example 6 Method 1
Procedure: as §2, §3, §4, §1

Question: With `O=c1ccc2ncc(=O)n3c2n1C[C@H]3CN1CCC(NCc2cc3c(cn2)OCCC3)CC1` [gepotidacin, (2R)-2-({4-[(3,4-dihydro-2H-pyrano[2,3-c]pyridin-6-ylmethyl)amino]-1-piperidinyl}methyl)-1,2-dihydro-3H,8H-2a,5,8a-triazaacenaphthylene-3,8-dione] as the molecule, how does the “Gepotidacin MIC range” value (Bacteroides vulgatus; ceftriaxone R, 7 isolates) read?
Answer: 0.06 to 4 µg/mL

Question: And the “Gepotidacin MIC range” value (Bacteroides vulgatus; clindamycin R, 4 isolates)?
Answer: 0.06 to 0.5 µg/mL

Question: And the “Gepotidacin MIC range” value (Bacteroides vulgatus; moxifloxacin R, 3 isolates)?
Answer: 0.25 to 4 µg/mL

Question: What about the “Gepotidacin MIC range” value (Bacteroides uniformis; ceftriaxone R, 2 isolates) of the same molecule?
Answer: 0.5 to 2 µg/mL

Question: What about the “Gepotidacin MIC range” value (Bacteroides uniformis; moxifloxacin R, 1 isolate) of the same molecule?
Answer: 0.5 µg/mL

Question: And the “Gepotidacin MIC range” value (Bacteroides fragilis; ceftriaxone R, 24 isolates)?
Answer: 0.25 to 16 µg/mL

Question: What about the “Gepotidacin MIC range” value (Bacteroides fragilis; clindamycin R, 23 isolates) of the same molecule?
Answer: 0.06 to 16 µg/mL

Question: What about the “Gepotidacin MIC range” value (Bacteroides fragilis; imipenem R, 2 isolates) of the same molecule?
Answer: 1 to 4 µg/mL

Question: What about the “Gepotidacin MIC range” value (Bacteroides fragilis; moxifloxacin R, 20 isolates) of the same molecule?
Answer: 0.25 to 8 µg/mL

Question: And the “Gepotidacin MIC range” value (Bacteroides fragilis; pip/tazo R, 2 isolates)?
Answer: 1 to 4 µg/mL

Question: What about the “Gepotidacin MIC range” value (Bacteroides stercoris) of the same molecule?
Answer: ≤0.015 to 0.5 µg/mL

Question: And the “Gepotidacin MIC range” value (Bacteroides ovatus; ceftriaxone R, 5 isolates)?
Answer: 0.5 to 2 µg/mL

Question: And the “Gepotidacin MIC range” value (Bacteroides ovatus; clindamycin R, 5 isolates)?
Answer: 0.25 to 4 µg/mL

Question: What about the “Gepotidacin MIC range” value (Bacteroides ovatus; moxifloxacin R, 3 isolates) of the same molecule?
Answer: 0.5 to 4 µg/mL

Question: And the “Gepotidacin MIC range” value (Bacteroides spp; ceftriaxone R, 61 isolates)?
Answer: ≤0.015 to 6 µg/mL

Question: And the “Gepotidacin MIC range” value (Bacteroides spp; clindamycin R, 51 isolates)?
Answer: 0.06 to 16 µg/mL

Question: And the “Gepotidacin MIC range” value (Bacteroides spp; moxifloxacin R, 35 isolates)?
Answer: 0.25 to 8 µg/mL

Question: What about the “Gepotidacin MIC range” value ([1]; ceftriaxone R, 20 isolates) of the same molecule?
Answer: 0.5 to 8 µg/mL

Question: What about the “Gepotidacin MIC range” value ([1]; clindamycin R, 18 isolates) of the same molecule?
Answer: 0.5 to 8 µg/mL

Question: What about the “Gepotidacin MIC range” value ([1]; moxifloxacin R, 7 isolates) of the same molecule?
Answer: 0.5 to 8 µg/mL

Question: What about the “Gepotidacin MIC range” value (Bacteroides caccae; ceftriaxone R) of the same molecule?
Answer: 0.25 µg/mL

Question: And the “Gepotidacin MIC range” value (Bacteroides caccae; clindamycin R)?
Answer: 4 µg/mL

Question: What about the “Gepotidacin MIC range” value (Bacteroides caccae; moxifloxacin R) of the same molecule?
Answer: 0.25 µg/mL

Question: What about the MIC90 (Bifidobacterium spp.; Bifidobacterium, 26 isolates, read-out: Gepotidacin MIC90) of the same molecule?
Answer: 0.5 µg/mL (≈ 1.11 µM)

Question: What about the “Gepotidacin MIC range” value (Bifidobacterium spp.; moxifloxacin R, 3 isolates) of the same molecule?
Answer: 0.125 to 0.5 µg/mL

Question: And the MIC90 (Veillonella spp.; Veillonella, 25 isolates, read-out: Gepotidacin MIC90)?
Answer: 0.12 µg/mL (≈ 0.268 µM)

Question: And the “Gepotidacin MIC range” value (Veillonella spp.; clindamycin R, 5 isolates)?
Answer: 0.125 µg/mL

Question: And the “Gepotidacin MIC range” value (Veillonella spp.; moxifloxacin R, 3 isolates)?
Answer: ≤0.015 to 0.03 µg/mL

Question: What about the “Gepotidacin MIC range” value (Clostridium difficile; Clostridioides difficile ceftriaxone R, 48 isolates) of the same molecule?
Answer: 0.5 to 4 µg/mL

Question: What about the “Gepotidacin MIC range” value (Clostridium difficile; Clostridioides difficile clindamycin R, 23 isolates) of the same molecule?
Answer: 0.5 to 2 µg/mL

Question: And the “Gepotidacin MIC range” value (Clostridium difficile; Clostridioides difficile imipenem R, 2 isolates)?
Answer: 1 µg/mL

Question: What about the “Gepotidacin MIC range” value (Clostridium difficile; Clostridioides difficile moxifloxacin R, 37 isolates) of the same molecule?
Answer: 0.5 to 8 µg/mL

Question: What about the MIC90 (Clostridium difficile; Clostridioides difficile, 100 isolates, read-out: Gepotidacin MIC90) of the same molecule?
Answer: 2 µg/mL (≈ 4.46 µM)

Question: What about the MIC90 (Eubacterium spp.; Eubacterium, 31 isolates, read-out: Gepotidacin MIC90) of the same molecule?
Answer: 2 µg/mL (≈ 4.46 µM)

Question: What about the “Gepotidacin MIC range” value (Eubacterium spp.; moxifloxacin R, 3 isolates) of the same molecule?
Answer: 0.25 to 2 µg/mL

Question: What about the MIC90 ([2]; Peptostreptococcus anaerobius, 25 isolates, read-out: Gepotidacin MIC90) of the same molecule?
Answer: 0.03 µg/mL (≈ 0.0669 µM)

Question: And the “Gepotidacin MIC range” value ([2]; clindamycin R)?
Answer: ≤0.015 to 0.03 µg/mL

Question: What about the “Gepotidacin MIC range” value ([2]; moxifloxacin R) of the same molecule?
Answer: 0.03 µg/mL

Question: And the MIC90 (Prevotella spp.; Prevotella, 30 isolates, read-out: Gepotidacin MIC90)?
Answer: 4 µg/mL (≈ 8.92 µM)

Question: And the “Gepotidacin MIC range” value (Prevotella spp.; ceftriaxone R, 6 isolates)?
Answer: 0.25 to 2 µg/mL

Question: What about the “Gepotidacin MIC range” value (Prevotella spp.; clindamycin R, 7 isolates) of the same molecule?
Answer: 0.25 to 4 µg/mL

Question: What about the MIC90 ([3]; Sutterella wadsworthensis, 10 isolates, read-out: Gepotidacin MIC90) of the same molecule?
Answer: 1 µg/mL (≈ 2.23 µM)

Question: And the “Gepotidacin MIC range” value ([3]; metronidazole R, 4 isolates)?
Answer: 0.5 to 1 µg/mL

Question: What about the MIC90 (Porphyromonas spp.) of the same molecule?
Answer: 1 µg/mL (≈ 2.23 µM)

Question: What about the MIC90 (Bacteroides spp.; Bacteroides, 191 isolates, read-out: Gepotidacin MIC90) of the same molecule?
Answer: 4 µg/mL (≈ 8.92 µM)

Question: And the “Gepotidacin MIC range” value (Bacteroides spp.; ceftriaxone R, 100 isolates)?
Answer: ≤0.015 to 32 µg/mL

Question: What about the “Gepotidacin MIC range” value (Bacteroides spp.; clindamycin R, 53 isolates) of the same molecule?
Answer: ≤0.015 to 32 µg/mL

Question: What about the “Gepotidacin MIC range” value (Bacteroides spp.; moxifloxacin R, 32 isolates) of the same molecule?
Answer: 0.25 to 32 µg/mL

Question: And the MIC90 (Fusobacterium spp.; Fusobacterium, 25 isolates, read-out: Gepotidacin MIC90)?
Answer: 2 µg/mL (≈ 4.46 µM)

Question: And the “Gepotidacin MIC range” value (Fusobacterium spp.; clindamycin R, 2 isolates)?
Answer: 0.25 to 2 µg/mL

Question: What about the MIC [4] of the same molecule?
Answer: ≤ 2 µg/mL

Question: And the MIC90 ([4]; 333 gram-negative and 203 gram-positive anaerobic isolates, per pathogen group)?
Answer: ≤ 4 µg/mL

Question: What about the MIC ([4]; Bacteroides caccae, read-out: MICs) of the same molecule?
Answer: ≤ 4 µg/mL

Question: What about the MIC90 (Eggerthella lenta; Eggerthella lenta, 21 isolates, read-out: Gepotidacin MIC90) of the same molecule?
Answer: 4 µg/mL (≈ 8.92 µM)

Question: What about the “Gepotidacin MIC range” value (Eggerthella lenta; ceftriaxone R, 19 isolates) of the same molecule?
Answer: 0.06 to 32 µg/mL

Question: And the “Gepotidacin MIC range” value (Eggerthella lenta; clindamycin R, 3 isolates)?
Answer: 1 to 4 µg/mL

Question: And the “Gepotidacin MIC range” value (Eggerthella lenta; moxifloxacin R, 6 isolates)?
Answer: 1 to 32 µg/mL

Question: What about the MIC90 (Lactobacillus spp.; Lactobacillus, 91 isolates, read-out: Gepotidacin MIC90) of the same molecule?
Answer: 1 µg/mL (≈ 2.23 µM)

Question: What about the “Gepotidacin MIC range” value (Lactobacillus spp.; clindamycin R, 3 isolates) of the same molecule?
Answer: 0.03 to 1 µg/mL

Question: And the “Gepotidacin MIC range” value (Lactobacillus spp.; imipenem R, 27 isolates)?
Answer: 0.03 to 1 µg/mL
